Results reported in patent US20250026746A1, “ENHANCERS OF PARTICULATE GUANYLYL CYCLASE RECEPTOR A” (Mayo Foundation for Medical Education and Research, priority 2021, published 2025).

What was measured:
[1] = molecular target: T1, human GC-A (Homo sapiens, UniProt P16066); assay: EC50 and Emax cGMP determination, HTRF, human GC-A overexpressing HEK293 cells; format: cell-based; conditions: HEK293 GC-A cells
T1 construct: host or cells: HEK293
T1 sequence (P16066 33-1061): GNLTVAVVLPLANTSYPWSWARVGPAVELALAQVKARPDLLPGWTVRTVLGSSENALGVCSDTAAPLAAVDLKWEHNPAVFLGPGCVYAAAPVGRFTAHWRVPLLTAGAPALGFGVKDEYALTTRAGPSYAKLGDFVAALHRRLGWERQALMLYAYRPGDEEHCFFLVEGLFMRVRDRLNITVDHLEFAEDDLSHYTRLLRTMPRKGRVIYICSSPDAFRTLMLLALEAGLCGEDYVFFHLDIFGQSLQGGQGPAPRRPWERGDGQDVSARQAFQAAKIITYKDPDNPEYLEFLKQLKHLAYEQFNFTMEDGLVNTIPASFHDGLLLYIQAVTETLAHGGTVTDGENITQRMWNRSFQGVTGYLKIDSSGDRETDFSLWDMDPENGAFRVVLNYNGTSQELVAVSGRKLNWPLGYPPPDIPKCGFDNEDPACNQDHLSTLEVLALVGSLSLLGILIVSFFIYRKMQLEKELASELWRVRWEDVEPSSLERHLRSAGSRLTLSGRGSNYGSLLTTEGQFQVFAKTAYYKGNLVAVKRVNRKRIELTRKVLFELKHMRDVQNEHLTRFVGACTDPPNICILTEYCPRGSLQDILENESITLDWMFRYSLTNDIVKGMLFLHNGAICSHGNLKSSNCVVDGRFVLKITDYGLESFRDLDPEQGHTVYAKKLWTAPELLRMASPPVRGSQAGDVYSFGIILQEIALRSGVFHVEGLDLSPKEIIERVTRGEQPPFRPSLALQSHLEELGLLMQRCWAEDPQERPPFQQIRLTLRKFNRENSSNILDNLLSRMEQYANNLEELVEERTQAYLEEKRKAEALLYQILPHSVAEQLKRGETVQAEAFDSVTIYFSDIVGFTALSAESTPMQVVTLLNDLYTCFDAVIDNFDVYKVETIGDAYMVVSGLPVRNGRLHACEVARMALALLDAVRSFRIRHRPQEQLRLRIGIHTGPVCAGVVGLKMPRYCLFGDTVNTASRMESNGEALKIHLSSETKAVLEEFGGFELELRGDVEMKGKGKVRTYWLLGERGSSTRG
T1 sequence (P01160 124-151 partner limits assumed): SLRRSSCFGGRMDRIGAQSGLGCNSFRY
Method: Test compounds were evaluated for potentiation of cGMP in human GC-A overexpressing HEK293 cells (Cardiorenal Research Laboratory, Mayo Clinic). Test compounds at 10 mM DMSO stock concentration were dispensed into 384 well small volume white plates using Tecan D300e digital dispenser starting at 5 μM or 40 μM concentration and diluted 2-fold for 10-point concentration response. Wells were backfilled with DMSO such that the final concentration of DMSO in all wells was maintained at 0.3% DMSO. Atrial natriuretic peptide (ANP, Phoenix Pharmaceuticals) ANP was prepared as working stock aliquots at 5 μM in phosphate-buffered solution (PBS) with 0.1% bovine serum albumin (BSA) and diluted to […] in buffer plus Tween20 at 0.3% and added to plates to a final concentration equivalent to EC20 ANP in the cGMP assay. GC-A cells in suspension ([…]) in OptiMem media (ThermoFisher 11058-021) supplemented with 2% fetal bovine serum were plated at 1×10^6 cells/mL and assay plates were spun at 1000 rpm for 30 sec and incubated at room temperature for 30 min. GC-A-mediated activation of cGMP production was measured using cGMP CisBio detection homogenous time-resolved florescence (HTRF) competition assay using labeled-cGMP in human GC-A-overexpressing HEK293 cells. 5 μL of d-2 acceptor was dispensed into each well followed by addition of 5 μL of Anti-cGMP Eu-Cryptate antibody donor and plates were spun at 1000 rpm for 30 sec and incubated in the dark at room temperature for 1 hr. HTRF florescence was read on the ClarioStar microplate reader (BMG). A 100% response was determined from wells in the absence of compound and presence of saturating concentration of ANP (10 nM), and 0) % response was determined from wells containing an EC20 concentration of ANP determined for each new lot of ANP. Concentration-response curves for test compounds were analyzed by […] analysis using GraphPad software to determine EC50 and Emax values.

[2] = tested on: Primary Human cardiomyocytes; assay: cGMP levels (ELISA) in human cardiomyocytes; format: cell-based; conditions: acetate salt, ANP (10^-10 M); for cGMP generation in HCMs in the presence of ANP: 1 or 10 μM, vs vehicle
Method: Primary Human cardiomyocytes (HCMs: Catalog No. 6200, Lot No. 6288, PromoCell) were maintained and subcultured according to the manufacturer's protocols. Passage 5 was used in the study. Treatment buffer, Compound 3, Compound 1 and Compound 2 acetate salt, ANP, and vehicle were prepared as described above. Briefly, 5×10^5 of cells/well were grown in 6-well plates until 80 to 90% confluency and were then pretreated with vehicle or Compound 3, Compound 1 or Compound 2 at doses of 1 or 10 μM for 5 min at 37° C., then cells were treated with ANP (10^-10 M) for an additional 10 min at 37° C. Afterward, all cells were washed with PBS once and lysed with 0.1 M HCl at room temperature, and intracellular cGMP levels were measured in the lysate using a commercial cGMP ELISA kit (Enzo Life Sciences) with the acetylation method as instructed by the manufacturer.

| potency in potentiating ANP-mediated cGMP generation (comparison between forms/enantiomers) [1] | SMILES | cGMP generation in HCMs in the presence of ANP [2] | cGMP generation in HCMs, Compound 1 compared with Compound 2 ([2]; both doses) |
| --- | --- | --- | --- |
| more potent | CN(C)CCN1CCC[C@H](C(=O)Nc2nc3c(F)cc(F)cc3s2)C1 [Compound 1, (S)-N-(4,6-difluorobenzo[d]thiazol-2-yl)-1-(2-(dimethylamino)ethyl) piperidine-3-carboxamide] | increased cGMP levels in a dose dependent manner | more potent |
|  | CN(C)CCN1CCC[C@@H](C(=O)Nc2nc3c(F)cc(F)cc3s2)C1 [Compound 2, (R)-N-(4,6-difluorobenzo[d]thiazol-2-yl)-1-(2-(dimethylamino)ethyl) piperidine-3-carboxamide] | increased cGMP levels in a dose dependent manner |  |
